Results from the supplement of paper PMC9013687.
± gives the standard deviation of the averaged measurements.

Experiments:
[1] = system: Danio rerio embryo; conditions: exposure time: 4 dpf
Procedure: (§1)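 Zebrafish embryos (UFZ-OBI strain) were exposed from 2 hpf for 48 h (2 dpf) or 96 h (4 dpf) at 28 °C; spontaneous tail coiling was scored at 25 hpf. Morphological features from automated image analysis (FishInspector), heart rate and locomotor response were fitted with drc models. Quantal endpoints were dichotomised at 2.5 SD from controls and fitted with a log-logistic model; heart rate, pigmentation and STC were normalised to the replicate control mean. Betamethasone was tested as betamethasone dipropionate, diflorasone as diflorasone diacetate.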

[2] = system: Danio rerio embryo
Procedure: as §1

[3] = system: Danio rerio embryo; remark: listed apart in the source
Procedure: as §1

[4] = system: Danio rerio embryo; conditions: exposure time: 4 dpf; remark: listed apart in the source
Procedure: as §1

[5] = system: Danio rerio embryo; assay: EC50 Eye size_Decrease
Procedure: as §1

[6] = system: Danio rerio embryo; assay: EC50 Curvature_Increase
Procedure: as §1

[7] = system: Danio rerio embryo; assay: EC50 Body length_Decrease
Procedure: as §1

[8] = system: Danio rerio embryo; assay: EC50 Bladder size_Decrease; conditions: exposure time: 4 dpf
Procedure: as §1

[9] = system: Danio rerio embryo; assay: EC50 Pericard size_Increase; conditions: exposure time: 4 dpf
Procedure: as §1

[10] = system: Danio rerio embryo; assay: EC50 Eye-jaw distance_Decrease; conditions: exposure time: 4 dpf
Procedure: as §1

[11] = system: Danio rerio embryo; assay: EC50 Otolith-eye distance_Decrease; conditions: exposure time: 4 dpf
Procedure: as §1

[12] = system: Danio rerio embryo; assay: EC10 LMR dark; higher = less potent; conditions: exposure time: 4 dpf
Procedure: as §1

[13] = system: Danio rerio embryo; assay: EC20 LMR dark; higher = less potent; conditions: exposure time: 4 dpf
Procedure: as §1

[14] = system: Danio rerio embryo; assay: EC10 Lack of SB; higher = less potent; conditions: exposure time: 4 dpf
Procedure: as §1

[15] = system: Danio rerio embryo; assay: EC20 Lack of SB; higher = less potent; conditions: exposure time: 4 dpf
Procedure: as §1

[16] = system: Danio rerio embryo; assay: EC20 Any effect; higher = less potent
Procedure: as §1

[17] = system: Danio rerio embryo; assay: EC10 Any effect; higher = less potent
Procedure: as §1

[18] = system: Danio rerio embryo; assay: EC20 STC bell shape; higher = less potent; conditions: exposure time: 25 h
Procedure: as §1

[19] = system: Danio rerio embryo; assay: EC10 STC bell shape; higher = less potent; conditions: exposure time: 25 h
Procedure: as §1

[20] = system: Danio rerio embryo; assay: EC20 Eye size_Decrease; higher = less potent
Procedure: as §1

[21] = system: Danio rerio embryo; assay: EC10 Eye size_Decrease; higher = less potent
Procedure: as §1

[22] = system: Danio rerio embryo; assay: EC10 Curvature_Increase; higher = less potent
Procedure: as §1

[23] = system: Danio rerio embryo; assay: EC10 LMR ligth decrease; higher = less potent; conditions: exposure time: 4 dpf
Procedure: as §1

[24] = system: Danio rerio embryo; assay: EC20 LMR ligth decrease; higher = less potent; conditions: exposure time: 4 dpf
Procedure: as §1

[25] = system: Danio rerio embryo; assay: EC20 Curvature_Increase; higher = less potent
Procedure: as §1

[26] = system: Danio rerio embryo; assay: EC20 Body length_Decrease; higher = less potent
Procedure: as §1

[27] = system: Danio rerio embryo; assay: EC10 Body length_Decrease; higher = less potent
Procedure: as §1

[28] = system: Danio rerio embryo; assay: EC10 Pigmentation decrease; higher = less potent
Procedure: as §1

[29] = system: Danio rerio embryo; assay: EC10 Bladder size_Decrease; higher = less potent; conditions: exposure time: 4 dpf
Procedure: as §1

[30] = system: Danio rerio embryo; assay: EC20 Pigmentation decrease; higher = less potent
Procedure: as §1

[31] = system: Danio rerio embryo; assay: EC20 Bladder size_Decrease; higher = less potent; conditions: exposure time: 4 dpf
Procedure: as §1

[32] = system: Danio rerio embryo; assay: EC20 Pericard size_Increase; higher = less potent; conditions: exposure time: 4 dpf
Procedure: as §1

[33] = system: Danio rerio embryo; assay: EC10 Pericard size_Increase; higher = less potent; conditions: exposure time: 4 dpf
Procedure: as §1

[34] = system: Danio rerio embryo; assay: EC20 Eye-jaw distance_Decrease; higher = less potent; conditions: exposure time: 4 dpf
Procedure: as §1

[35] = system: Danio rerio embryo; assay: EC10 Eye-jaw distance_Decrease; higher = less potent; conditions: exposure time: 4 dpf
Procedure: as §1

[36] = system: Danio rerio embryo; assay: EC20 Otolith-eye distance_Decrease; higher = less potent; conditions: exposure time: 4 dpf
Procedure: as §1

[37] = system: Danio rerio embryo; assay: EC10 Otolith-eye distance_Decrease; higher = less potent; conditions: exposure time: 4 dpf
Procedure: as §1

[38] = system: Danio rerio embryo; assay: EC50 Yolk sac size_Decrease; conditions: exposure time: 4 dpf
Procedure: as §1

[39] = system: Danio rerio embryo; assay: EC20 Yolk sac size_Decrease; higher = less potent; conditions: exposure time: 4 dpf
Procedure: as §1

[40] = system: Danio rerio embryo; assay: EC10 Yolk sac size_Decrease; higher = less potent; conditions: exposure time: 4 dpf
Procedure: as §1

[41] = system: Danio rerio embryo; assay: spontaneous tail coiling frequency (coils/min/embryo); higher = more spontaneous movement; conditions: 25 hpf
Procedure: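 Spontaneous tail coilings of zebrafish embryos exposed from 2 hpf were recorded at 24-25 hpf in 1-min videos and detected by a KNIME workflow from grey-value variance. Betamethasone was tested as the dipropionate, diflorasone as the diacetate.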

CC(=O)Nc1ccc(O)cc1 [Acetaminophen]
EC50 Lack of SB [1]: 1440 µM | EC50 Pigmentation decrease ([2]; exposure time: 2 dpf): 1580 µM | EC50 Pigmentation decrease ([2]; exposure time: 4 dpf): 16300 µM | EC50 Any effect ([3]; exposure time: 2 dpf): 2690 µM | EC50 Any effect ([3]; exposure time: 4 dpf): 1710 µM | EC50 LMR ligth decrease ([3]; exposure time: 4 dpf): 821 µM | EC50 STC bell shape ([3]; exposure time: 25 h): 8110 µM | EC50 LMR dark [4]: 897 µM | EC50 Eye size Decrease ([5]; exposure time: 2 dpf): 2960 µM | EC50 Eye size Decrease ([5]; exposure time: 4 dpf): 1850 µM | EC50 Curvature Increase ([6]; exposure time: 2 dpf): 3760 µM | EC50 Curvature Increase ([6]; exposure time: 4 dpf): 3830 µM | EC50 Body length Decrease ([7]; exposure time: 2 dpf): 3990 µM | EC50 Body length Decrease ([7]; exposure time: 4 dpf): 3940 µM | EC50 Bladder size Decrease [8]: 1420 µM | EC50 Pericard size Increase [9]: 3010 µM | EC50 Eye-jaw distance Decrease [10]: 2830 µM | EC50 Otolith-eye distance Decrease [11]: 2720 µM | EC10 LMR dark [12]: 337 µM | EC20 LMR dark [13]: 500 µM | EC10 Lack of SB [14]: 1080 µM | EC20 Lack of SB [15]: 1200 µM | EC20 Any effect ([16]; exposure time: 2 dpf): 2050 µM | EC20 Any effect ([16]; exposure time: 4 dpf): 1150 µM | EC10 Any effect ([17]; exposure time: 2 dpf): 1740 µM | EC10 Any effect ([17]; exposure time: 4 dpf): 915 µM | EC20 STC bell shape [18]: 6320 µM | EC10 STC bell shape [19]: 5590 µM | EC20 Eye size Decrease ([20]; exposure time: 2 dpf): 2300 µM | EC20 Eye size Decrease ([20]; exposure time: 4 dpf): 1740 µM | EC10 Eye size Decrease ([21]; exposure time: 2 dpf): 1980 µM | EC10 Eye size Decrease ([21]; exposure time: 4 dpf): 1670 µM | EC10 Curvature Increase ([22]; exposure time: 2 dpf): 2100 µM | EC10 Curvature Increase ([22]; exposure time: 4 dpf): 3130 µM | EC10 LMR ligth decrease [23]: 467 µM | EC20 LMR ligth decrease [24]: 570 µM | EC20 Curvature Increase ([25]; exposure time: 2 dpf): 2600 µM | EC20 Curvature Increase ([25]; exposure time: 4 dpf): 3370 µM | EC20 Body length Decrease ([26]; exposure time: 2 dpf): 3500 µM | EC20 Body length Decrease ([26]; exposure time: 4 dpf): 3170 µM | EC10 Body length Decrease ([27]; exposure time: 2 dpf): 3230 µM | EC10 Body length Decrease ([27]; exposure time: 4 dpf): 2790 µM | EC10 Pigmentation decrease ([28]; exposure time: 2 dpf): 1010 µM | EC10 Pigmentation decrease ([28]; exposure time: 4 dpf): 2380 µM | EC10 Bladder size Decrease [29]: 1020 µM | EC20 Pigmentation decrease ([30]; exposure time: 2 dpf): 1180 µM | EC20 Pigmentation decrease ([30]; exposure time: 4 dpf): 2730 µM | EC20 Bladder size Decrease [31]: 1150 µM | EC20 Pericard size Increase [32]: 2500 µM | EC10 Pericard size Increase [33]: 2250 µM | EC20 Eye-jaw distance Decrease [34]: 2410 µM | EC10 Eye-jaw distance Decrease [35]: 2200 µM | EC20 Otolith-eye distance Decrease [36]: 2080 µM | EC10 Otolith-eye distance Decrease [37]: 1780 µM

C[C@@H]1C[C@H]2[C@@H]3CCC4=CC(=O)C=C[C@]4(C)[C@@]3(F)[C@@H](O)C[C@]2(C)[C@@]1(O)C(=O)CO [Dexamethasone]
EC50 Lack of SB [1]: 16.2 µM | EC50 Any effect ([3]; exposure time: 4 dpf): 113 µM | EC50 Bladder size Decrease [8]: 14.3 µM | EC50 Yolk sac size Decrease [38]: 259 µM | EC50 Pericard size Increase [9]: 226 µM | EC10 Lack of SB [14]: 0.944 µM | EC20 Lack of SB [15]: 2.7 µM | EC20 Any effect ([16]; exposure time: 4 dpf): 7.45 µM | EC10 Any effect ([17]; exposure time: 4 dpf): 1.52 µM | EC10 Bladder size Decrease [29]: 1.02 µM | EC20 Bladder size Decrease [31]: 2.7 µM | EC20 Yolk sac size Decrease [39]: 13.1 µM | EC10 Yolk sac size Decrease [40]: 2.27 µM | EC20 Pericard size Increase [32]: 22.8 µM | EC10 Pericard size Increase [33]: 5.95 µM | spontaneous tail coiling frequency ([41]; 2.5 µM): 2.19 ± 1.4 | spontaneous tail coiling frequency ([41]; 25.5 µM): 3.02 ± 0.14 | spontaneous tail coiling frequency ([41]; 63.7 µM): 2.67 ± 0.078 | spontaneous tail coiling frequency ([41]; 127.4 µM): 3.04 ± 0.58 | spontaneous tail coiling frequency ([41]; 254.8 µM): 2.79 ± 1.5
